Experimental data from US20240335443A1, “IMIDAZOLOPYRIDAZINE OR PYRAZOLOPYRIMIDINE COMPOUNDS AND COMPOSITIONS” (Anrui Biomedical Technology (Guangzhou) Co., Ltd., priority 2021, published 2024).
Counter-ions that a name gives are not always drawn. Like-named read-outs stand apart in the source and are kept apart here.

Columns and labels:
[1] = target: T1, N-terminal His-tagged TYK2 pseudokinase domain (Homo sapiens, UniProt P29597); assay: TYK2 JH2 domain SPA binding assay; conditions: displacement of H3 probe (20 nM), 30 min room temperature; class symbols
T1 construct: the N-terminal His-tagged TYK2 pseudokinase domain; His (N); purchased Pharmaron
Method: TYK2 JH2 Domain Binding Assay
After incubating at room temperature for 30 min, the inhibition was calculated by the displacement of [3H] 3 binding as determined by scintillation counting. Dose-response curves were generated to determine the concentration required to inhibit H3 probe binding by […] (IC50).

[2] = test system: IL-23 induced STAT3 in HEK-Blue™ IL-23 cells; assay: IL-23 induced STAT3 QUANTI-Blue reporter assay in HEK-Blue IL-23 cells; type: cell-based; conditions: IL-23 0.1 ng/mL, SEAP levels, class symbols, read-out: IL23 reporter assay (IC50 nM)
Method: Biological Example 2. IL-23 Induced STAT3 QUANTI-Blue in HEK-Blue™ IL-23 Cells
HEK-Blue™ IL-23 cells were prepared at 2×10^5 cells/ml for adding 5000 cell/well and incubate plates containing compounds+cells for 1 hour at 37° C. Prepare IL-23 (treatment at final conc. 0.1 ng/mL) during incubation and add 2 ul per well of prepared cytokine in media to appropriate wells. The plate is incubated for overnight at 37° C. The next day, QUANTI-Blue solution is prepared. 18 ul of QUANTI-Blue solution per well is added into a new 384-well clear flat bottom plate, then add 2 ul of induced and treated HEK-Blue cell supernatant from overnight plate. Incubate the plate at 37° C. for 2 hours and determine SEAP levels.

[3] = HEK-Blue IL-23, HEK-Blue IL-23 cells

T1 sequence (P29597 589-875 limits assumed): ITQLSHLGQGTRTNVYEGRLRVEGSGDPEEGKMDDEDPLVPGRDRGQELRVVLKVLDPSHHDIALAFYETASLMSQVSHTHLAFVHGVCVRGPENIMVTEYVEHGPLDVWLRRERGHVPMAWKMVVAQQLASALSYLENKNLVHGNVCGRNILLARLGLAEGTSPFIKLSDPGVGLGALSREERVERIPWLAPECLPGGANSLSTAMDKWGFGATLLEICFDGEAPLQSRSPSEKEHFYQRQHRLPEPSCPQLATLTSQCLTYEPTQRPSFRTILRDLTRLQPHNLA

| Structure (SMILES) | IC50 [1] [nM] | IC50 [2, 3] [nM] | IC50 ([2]; HEK-Blue IL-23 cells) [nM] |
| --- | --- | --- | --- |
| CNc1cc(Nc2cccn([C@H]3C[C@@H](OC)C3)c2=O)nn2c(C(=O)N[C@@H]3C[C@H]4CCO[C@H]43)cnc12 [Compound 85] | 10 to 100 | 10 to 100 | – |
| [2H]c1onc2c1CCC2NC(=O)c1cnn2c(NC)cc(Nc3cccn(-c4ccccn4)c3=O)nc12 (racemic) [Compound 38] | 10 to 100 | < 10 | – |
| [2H]C([2H])([2H])OC1(C)CC(n2cccc(Nc3cc(NC)c4ncc(C(=O)N[C@@H]5C[C@H]6CCO[C@H]65)n4n3)c2=O)C1 (single isomer, unassigned) [Compound 93a] | 10 to 100 | 10 to 100 | – |
| [2H]C([2H])([2H])O[C@H]1CC[C@@H](n2cccc(Nc3cc(NC)c4ncc(C(=O)N[C@@H]5C[C@@H]5F)n4n3)c2=O)CC1 [Compound 15, N-((1R,2S)-2-fluorocyclopropyl)-6-((1-((1s,4s)-4-(methoxy-d3)cyclohexyl)-2-oxo-1,2-dihydropyridin-3-yl)amino)-8-(methylamino)imidazo[1,2-b]pyridazine-3-carboxamide hydrochloride] | 10 to 100 | 10 to 100 | – |
| [2H]C([2H])([2H])Nc1cc(Nc2cccn(C3CCCC4(COC4)C3)c2=O)nn2c(C(=O)N[C@@H]3C[C@H]4CCO[C@H]43)cnc12 (single isomer, unassigned) [Compound 68a] | 10 to 100 | 10 to 100 | – |
| CNc1cc(Nc2cccc3c2OCCC3)nn2c(C(=O)N[C@@H]3C[C@@H]4CCO[C@@H]43)cnc12 (racemic) [Compound 24] | 10 to 100 | 10 to 100 | – |
| CNc1cc(Nc2cccc(C)n2)nc2c(C(=O)NC3CCn4ccnc43)cnn12 (racemic) [Compound 32] | 10 to 100 | < 10 | – |
| [2H]C([2H])([2H])Nc1cc(Nc2cccn(C3CC4(CCOC4)C3)c2=O)nn2c(C(=O)N[C@@H]3C[C@@H]3F)cnc12 (single isomer, unassigned) [Compound 102a] | 10 to 100 | 10 to 100 | – |
| CNc1cc(Nc2cccc3c2OCCC3)nn2c(C(=O)NC(C)c3ncco3)cnc12 (single isomer, unassigned) [Compound 22a] | > 1000 | – | ≥ 1000 |
| [2H]C([2H])([2H])Nc1cc(Nc2cccn(C3CC4(CCOC4)C3)c2=O)nn2c(C(=O)N[C@@H]3C[C@H]4CCO[C@H]43)cnc12 (single isomer, unassigned) [Compound 96b] | 10 to 100 | – | 10 to 100 |
| CNc1cc(Nc2cccn(-c3nn(C)cc3F)c2=O)nn2c(C(=O)N[C@@H]3C[C@H]4CCO[C@H]43)cnc12 [Compound 54] | 10 to 100 | < 10 | – |
| [2H]C([2H])([2H])Nc1cc(Nc2cccn([C@@H]3C[C@H]4CCO[C@H]43)c2=O)nn2c(C(=O)N[C@@H]3C[C@@H]3F)cnc12 [Compound 106] | < 10 | < 10 | – |
| [2H]C([2H])([2H])Nc1cc(Nc2cccn(-c3ccn(C)n3)c2=O)nn2c(C(=O)N[C@@H]3C[C@H]4CCO[C@H]43)cnc12 [Compound 52] | < 10 | < 10 | – |
| CNc1cc(Nc2cccn(-c3ccccc3)c2=O)nn2c(C(=O)N[C@@H]3C[C@H]4CCO[C@H]43)cnc12 [Compound 46] | 10 to 100 | < 10 | – |
| [2H]C([2H])([2H])Nc1cc(Nc2cccn([C@H]3C[C@@H](OC([2H])([2H])[2H])C3)c2=O)nn2c(C(=O)N[C@@H]3C[C@H]4CCO[C@H]43)cnc12 [Compound 87] | 10 to 100 | 10 to 100 | – |
| [2H]C([2H])([2H])Nc1cc(Nc2cccn([C@@H]3C[C@H]4CCO[C@H]43)c2=O)nn2c(C(=O)N[C@@H]3C[C@H]4CCO[C@H]43)cnc12 [Compound 14, 6-((1-((1R,5S,7R)-2-oxabicyclo[3.2.0]heptan-7-yl)-2-oxo-1,2-dihydropyridin-3-yl)amino)-N-((1R,5S,7R)-2-oxabicyclo[3.2.0]heptan-7-yl)-8-((methyl-d3)amino)imidazo[1,2-b]pyridazine-3-carboxamide] | < 10 | < 10 | – |
| CNc1cc(Nc2cccn(-c3ccccn3)c2=O)nc2c(C(=O)N[C@@H]3C[C@H]4CCO[C@H]43)cnn12 (racemic) [Compound 43] | 10 to 100 | 10 to 100 | – |
| [2H]C([2H])([2H])Nc1cc(Nc2cccn(-c3ccn(C([2H])([2H])[2H])n3)c2=O)nn2c(C(=O)N[C@@H]3C[C@H]4CCO[C@H]43)cnc12 [Compound 53] | 10 to 100 | < 10 | – |
| CNc1cc(Nc2cccn(C3C[C@H]4CC[C@@H](C3)O4)c2=O)nc2c(C(=O)N[C@@H]3C[C@H]4CCO[C@H]43)cnn12 (stereo partly drawn) [Compound 76] | 10 to 100 | 10 to 100 | – |
| CNc1cc(Nc2cccc3c2OCCC3)nc2c(C(=O)NC(C)c3ncco3)cnn12 (single isomer, unassigned) [Compound 23a] | 100 to 1000 | – | ≥ 1000 |
| CNc1cc(Nc2cccn(C3CC4CCOC43)c2=O)nn2c(C(=O)N[C@@H]3C[C@@H]3F)cnc12 (single isomer, unassigned) [Compound 105b] | 100 to 1000 | – | 10 to 100 |
| CNc1cc(Nc2cccn(CC3CCCO3)c2=O)nn2c(C(=O)N[C@@H]3C[C@@H]3F)cnc12 (stereo partly drawn) [Compound 107] | 10 to 100 | 10 to 100 | – |
| [2H]C([2H])([2H])Nc1cc(Nc2cccn([C@H]3C[C@H](OC([2H])([2H])[2H])C3)c2=O)nc2c(C(=O)N[C@@H]3C[C@@H]3F)cnn12 [Compound 100] | 10 to 100 | 10 to 100 | – |

More lines, main results first:

| IC50 [1] [nM] | Structure (SMILES) | IC50 [2, 3] [nM] | IC50 ([2]; HEK-Blue IL-23 cells) [nM] |
| --- | --- | --- | --- |
| 10 to 100 | [2H]C([2H])([2H])Nc1cc(Nc2cccn(C3CC4(CCOC4)C3)c2=O)nc2c(C(=O)N[C@@H]3C[C@H]4CCO[C@H]43)cnn12 (single isomer, unassigned) [Compound 97a] | 10 to 100 | – |
| 10 to 100 | CNc1cc(Nc2cccn(CC3CCCO3)c2=O)nn2c(C(=O)N[C@@H]3C[C@H]4CCO[C@H]43)cnc12 (single isomer, unassigned) [Compound 62b] | – | 10 to 100 |
| 10 to 100 | CNc1cc(Nc2cccn([C@H]3C[C@H](F)C3)c2=O)nn2c(C(=O)N[C@@H]3C[C@H]4CCO[C@H]43)cnc12 [Compound 90] | 10 to 100 | – |
| < 10 | CNc1cc(Nc2cccc3c2OCCC3)nn2c(C(=O)NC3CCn4ccnc43)cnc12 (stereo not drawn) [Compound 6, 6-(chroman-8-ylamino)-N-(6,7-dihydro-5H-pyrrolo[1,2-a]imidazol-7-yl)-8-(methylamino)imidazo[1,2-b]pyridazine-3-carboxamide] | < 10 | – |
| 100 to 1000 | [2H]C([2H])([2H])Nc1cc(Nc2cccn(C3CCCC4(COC4)C3)c2=O)nn2c(C(=O)N[C@@H]3C[C@@H]3F)cnc12 (single isomer, unassigned) [Compound 75a] | – | 100 to 1000 |
| 10 to 100 | CNc1cc(Nc2cccn([C@H]3CCCOC3)c2=O)nn2c(C(=O)N[C@@H]3C[C@H]4CCO[C@H]43)cnc12 [Compound 65] | < 10 | – |
| 10 to 100 | [2H]C([2H])([2H])Nc1cc(Nc2cccn(C3CC4(CCCO4)C3)c2=O)nn2c(C(=O)N[C@@H]3C[C@@H]3F)cnc12 (single isomer, unassigned) [Compound 104a] | 10 to 100 | – |
| 10 to 100 | CNc1cc(Nc2cccn([C@H]3CC[C@H](OC)CC3)c2=O)nn2c(C(=O)N[C@@H]3C[C@@H]3F)cnc12 [Compound 16, N-((1R,2S)-2-fluorocyclopropyl)-6-((1-((1r,4r)-4-methoxycyclohexyl)-2-oxo-1,2-dihydropyridin-3-yl)amino)-8-(methylamino)imidazo[1,2-b]pyridazine-3-carboxamide] | < 10 | – |
| 10 to 100 | CNc1cc(Nc2cccn(C3CC4CCOC43)c2=O)nn2c(C(=O)N[C@@H]3C[C@@H]3F)cnc12 (single isomer, unassigned) [Compound 105d] | – | < 10 |
| 10 to 100 | CNc1cc(Nc2cccc3c2OCCC3)nn2c(C(=O)NCc3nccn3C)cnc12 [Compound 21] | < 10 | – |
| < 10 | CNc1cc(Nc2cccc(N3CCCC3=O)n2)nn2c(C(=O)NC3CCn4ccnc43)cnc12 (racemic) [Compound 29] | < 10 | – |
| < 10 | CNc1cc(Nc2cccc3c2OCCC3)nn2c(C(=O)NCc3ncco3)cnc12 [Compound 20] | < 10 | – |
| < 10 | CNc1cc(Nc2cccc3c2OCCC3)nc2c(C(=O)NC(C)c3ncco3)cnn12 (single isomer, unassigned) [Compound 23b] | – | 10 to 100 |
| 10 to 100 | CNc1cc(Nc2cccn(-c3ncccc3F)c2=O)nn2c(C(=O)N[C@@H]3C[C@H]4CCO[C@H]43)cnc12 [Compound 1, N-((1R,5S,7R)-2-oxabicyclo[3.2.0]heptan-7-yl)-6-((3′-fluoro-2-oxo-2H-[1,2′-bipyridin]-3-yl)amino)-8-(methylamino)imidazo[1,2-b]pyridazine-3-carboxamide] | < 10 | – |
| 10 to 100 | [2H]C([2H])([2H])Nc1cc(Nc2cccn(C3CC4OCCC43)c2=O)nn2c(C(=O)N[C@@H]3C[C@@H]3F)cnc12 (single isomer, unassigned) [Compound 101a] | 10 to 100 | – |
| 10 to 100 | CNc1cc(Nc2cccn([C@@H]3C[C@H]4CCO[C@H]43)c2=O)nn2c(C(=O)NC3CCC4CCOC43)cnc12 (single isomer, unassigned) [Compound 95a] | – | < 10 |
